Data published in publication PMC12610274, “Identification of Marrubiin as a Cathepsin C Inhibitor for Treating Rheumatoid Arthritis” (Molecules, 2025).

How the values were obtained:
PR3 [1] = assay: AIA model, serum PR3 activity; format: in vivo, Sprague-Dawley rats; settings: rat AIA, high dose 60 mg/kg gavage, 15 days
Protocol: Thirty 4-week-old male Sprague-Dawley rats (weighing 120–130 g) were randomly divided into 6 groups (5 rats per group) after 1 week of adaptive feeding, namely the normal group, model group, low-dose experimental group (15 mg/kg), medium-dose experimental group (30 mg/kg), high-dose experimental group (60 mg/kg), and positive control group (30 mg/kg). Starting from Day 0 of the experiment, rats in the administration groups and model group were injected intradermally with 0.1 mL of CFA into the left hind paw to induce AIA, while rats in the normal group were injected intradermally with an equal volume (0.1 mL) of normal saline as a control. After 13 consecutive days of feeding, rats treated with CFA successfully developed typical AIA symptoms. […] During the experiment, the body weight, mental state, activity ability, hair color changes, and paw appearance changes of the rats were observed and recorded daily. In addition, on Day 0 of the experiment (baseline period), the basic paw volume of all rats was accurately measured using a plethysmometer, which served as a reference standard for subsequent evaluation of inflammation severity. From Day 13 to Day 28 of the experiment, the paw volume of the rats was measured repeatedly every 3 days. The degree of paw swelling was quantified by calculating the change in paw volume relative to the baseline. […] The cytokine levels in serum were measured. […]

Dipeptidyl Peptidase 8 = Dipeptidyl Peptidase 8 (Homo sapiens, UniProt Q6V1X1); assay: Recombinant dipeptidyl peptidases isolated enzyme assay, DPP8; format: biochemical; settings: read-out: Dipeptidyl Peptidase 8 Enz (IC50: μM)
Dipeptidyl Peptidase 8, sequence (Q6V1X1 whole entry, species assumed): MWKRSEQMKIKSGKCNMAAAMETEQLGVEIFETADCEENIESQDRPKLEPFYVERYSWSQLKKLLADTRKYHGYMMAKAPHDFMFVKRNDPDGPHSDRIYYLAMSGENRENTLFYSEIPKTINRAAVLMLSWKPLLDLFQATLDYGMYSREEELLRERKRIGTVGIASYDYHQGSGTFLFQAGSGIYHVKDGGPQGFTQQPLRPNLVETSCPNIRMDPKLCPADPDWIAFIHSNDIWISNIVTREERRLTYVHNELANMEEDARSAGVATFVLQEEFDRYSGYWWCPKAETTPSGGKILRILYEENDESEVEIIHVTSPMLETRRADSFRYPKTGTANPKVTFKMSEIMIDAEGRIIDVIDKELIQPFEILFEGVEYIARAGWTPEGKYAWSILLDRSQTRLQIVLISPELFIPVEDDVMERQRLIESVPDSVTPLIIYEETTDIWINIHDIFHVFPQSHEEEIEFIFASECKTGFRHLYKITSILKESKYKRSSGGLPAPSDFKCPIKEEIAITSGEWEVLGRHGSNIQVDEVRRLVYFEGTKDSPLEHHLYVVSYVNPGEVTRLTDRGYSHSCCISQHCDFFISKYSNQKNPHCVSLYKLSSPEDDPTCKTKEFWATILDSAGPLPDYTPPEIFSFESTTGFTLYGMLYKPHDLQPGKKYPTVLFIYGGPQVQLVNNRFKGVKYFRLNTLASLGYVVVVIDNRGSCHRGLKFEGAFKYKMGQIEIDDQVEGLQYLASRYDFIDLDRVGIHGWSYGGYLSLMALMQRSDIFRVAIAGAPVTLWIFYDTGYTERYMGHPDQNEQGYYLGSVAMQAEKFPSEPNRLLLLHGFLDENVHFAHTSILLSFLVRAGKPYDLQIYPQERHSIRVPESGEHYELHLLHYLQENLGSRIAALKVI
Text: Table 3 Inhibitory effects of marrubiin on dipeptidyl peptidase. | column: Dipeptidyl Peptidase 8 Enz (IC50: μM)

CTSS = biological target: T1, CTSS (Homo sapiens, UniProt P25774); assay: Human recombinant cathepsins isolated enzyme assay, CTSS; format: biochemical; settings: read-out: CTSS Enz (IC50: μM)
T1 construct: purchased R&D Systems
T1 sequence (P25774 115-331): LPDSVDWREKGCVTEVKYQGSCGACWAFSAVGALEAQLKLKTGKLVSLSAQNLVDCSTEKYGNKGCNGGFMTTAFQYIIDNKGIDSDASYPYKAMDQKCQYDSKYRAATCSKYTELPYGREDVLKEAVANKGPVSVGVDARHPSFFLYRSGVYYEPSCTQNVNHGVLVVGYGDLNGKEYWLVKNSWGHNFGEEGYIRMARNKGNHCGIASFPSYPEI
Text: (§1) The protocol for evaluating the inhibitory potency of compounds against other cathepsins referred to the CTSC activity assay. Recombinant human CTSB, CTSL, CTSS and CTSK for testing were also purchased from R&D Systems Biotechnology Company. Recombinant human Cat G, NE, and PR3 For testing were purchased from MedChemExpress. A multi-functional microplate reader was used to measure the absorption of Z-Leu-Arg-AMC at excitation/emission wavelengths of 380/460 nm to assess the activity changes of CTSB and CTSL, while the absorption of MCA-Arg-Pro-Lys-Pro-Val-Glu-NVAL-Trp-Arg-Lys(DNP)-NH2 at 320/405 nm was measured to evaluate the activity changes of CTSS and CTSK. Different assay buffers were prepared for diluting samples and measuring the activities of specific NSPs: a buffer containing 50 mM Tris and 750 mM NaCl (pH 7.4) was used for NE and PR3; a buffer containing 50 mM Tris, 750 mM NaCl, 5 mM EDTA (pH 7.4) was used for Cat G; and a buffer containing 25 mM MES, 50 mM NaCl, 5 mM DTT (pH 6.0) was used for CTSC. Synthetic substrates were employed to assess the activities of NSPs and CTSC: H-Gly-Arg-AMC for CTSC, N-MeSuc-Ala-Ala-Pro-Val-pNA for NE, aminobenzoyl-Val-Ala-Asp-Cys-Ala-Asp-Gln-ethylenediamine 2,4-dinitrophenyl for PR3, and N-Suc-Ala-Ala-Pro-Phe-pNA for Cat G. Each group of tests was independently repeated at least 3 times, and IC50 values were calculated using SPSS 10.0.

PR3 [2] = assay: Stability (protein level) of NSPs in U937 cells, Western blot, PR3; format: cell-based, human; settings: U937, 10 μM
Protocol: (§2) The Western blot experiments in this study were performed as described below. Cells in the logarithmic growth phase were collected in appropriate numbers according to different experimental purposes. After being thoroughly washed with phosphate-buffered saline and centrifuged, the cell pellets were resuspended in phosphate-buffered saline to obtain single-cell suspensions. Cells were fully lysed using RIPA buffer (Beyotime, P0013B) supplemented with EDTA-free protease and phosphatase inhibitor (Abcam, ab201120). Total cellular protein solutions were obtained after centrifugation to remove cell debris. The isolated proteins were quantified using the BeyoBCA protein assay kit (Beyotime, P0399M) following the operational protocol. The quantified protein samples were thoroughly mixed with protein loading buffer, boiled on a dry bath for 5 min, and then cooled to room temperature for Western blot analysis. […] Finally, enhanced chemiluminescent horseradish peroxidase substrate (Tanon Science & Technology Co., Ltd., Shanghai, China, 180-506) was used to visualize protein bands on a ChemiDoc XRS system (Bio-Rad Laboratories, Inc., Hercules, CA, USA), and the protein bands were quantified using Image Lab analysis software (Version 6.1) (Bio-Rad). […]

CTSB = biological target: T2, CTSB (Homo sapiens, UniProt P07858); assay: Human recombinant cathepsins isolated enzyme assay, CTSB; format: biochemical; settings: read-out: CTSB Enz (IC50: μM)
T2 construct: purchased R&D Systems
Text: as §1

Cat G = assay: Stability (protein level) of NSPs in U937 cells, Western blot, Cat G; format: cell-based, human; settings: U937, 10 μM
Protocol: as §2

C[C@@H]1C[C@H]2OC(=O)[C@@]3(C)CCC[C@@](C)([C@@H]23)[C@@]1(O)CCc1ccoc1 [Marrubiin, marrubiin]
serum PR3 activity, % of control group (PR3 [1]): ~50% | IC50 (Dipeptidyl Peptidase 8): > 10 µM | IC50 (CTSS): > 5 µM | PR3 protein level, % of original level (PR3 [2]; 96 h): 28.2% | PR3 protein level, % of original level (PR3 [2]; 5 days): 15.8% | IC50 (CTSB): 9.8 ± 1.1 µM | Cat G protein level, % of original level (Cat G; 96 h): 30.2% | Cat G protein level, % of original level (Cat G; 5 days): 12.3%
